In ChEMBL document CHEMBL1201862, “PubChem BioAssay data set” (2004):
The source made the active and inactive calls.

What was measured:
[1] = Luminescence Cell-Based Dose Retest to Confirm Inhibitors of Cancer Stem Cells. [Related pubchem assays (depositor defined):AID2717, AID2721]; format: functional; conditions: Homo sapiens
[2] = luciferase reporter signal suppression in cells – H4 neuroglioma cells, luminescence, dose response (AID 1990); format: functional, cell-based
[3] = alpha-synuclein stem-loop luciferase translation blockers – H4 neuroglioma cells, luminescence, confirmation (AID 1988); format: functional, cell-based
[4] = Luminescence Cell-Based Dose Response HTS to Identify Inhibitors of 5'UTR Stem-Loop Driven Prion Protein mRNA Translation in H4 Neuroglioblastoma Cells. [Related pubchem assays: 1827 (Project Summary), 1813 (Primary HTS)]; format: functional
Cytochrome P450 3A4 = Cytochrome P450 3A4 (Homo sapiens, UniProt P08684);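 also: CYP3A4 tested as one member of a cytochrome P450 panel screen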
Cytochrome P450 2C9 = Cytochrome P450 2C9 (Homo sapiens, UniProt P11712)
[5] = molecular target: T1, Rac GTPase-activating protein 1 (Homo sapiens, UniProt Q9H0H5); assay: blockers of MgcRacGAP-driven Rac1 GTP hydrolysis – biochemical, ADP Hunter fluorescence, primary and confirmatory, confirmation (AID 624330); format: functional
T1 sequence (Q9H0H5 whole entry): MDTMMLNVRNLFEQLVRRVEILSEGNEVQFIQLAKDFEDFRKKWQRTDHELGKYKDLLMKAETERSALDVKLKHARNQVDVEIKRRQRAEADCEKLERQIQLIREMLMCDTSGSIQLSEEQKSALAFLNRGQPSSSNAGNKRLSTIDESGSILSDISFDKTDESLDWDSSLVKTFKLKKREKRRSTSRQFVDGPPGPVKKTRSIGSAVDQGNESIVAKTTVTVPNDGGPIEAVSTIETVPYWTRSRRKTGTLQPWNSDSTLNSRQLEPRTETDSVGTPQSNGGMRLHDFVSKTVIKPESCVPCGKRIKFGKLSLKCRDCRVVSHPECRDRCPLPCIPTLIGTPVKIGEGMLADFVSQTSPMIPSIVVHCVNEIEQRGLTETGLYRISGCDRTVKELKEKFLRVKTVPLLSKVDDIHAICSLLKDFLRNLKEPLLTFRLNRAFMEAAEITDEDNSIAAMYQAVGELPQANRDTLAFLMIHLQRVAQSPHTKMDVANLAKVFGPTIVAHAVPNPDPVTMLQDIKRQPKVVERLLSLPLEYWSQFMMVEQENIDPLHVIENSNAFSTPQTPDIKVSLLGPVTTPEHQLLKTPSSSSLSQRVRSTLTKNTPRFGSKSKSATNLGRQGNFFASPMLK

Cytochrome P450 2D6 = Cytochrome P450 2D6 (Homo sapiens, UniProt P10635);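 also: CYP2D6 member of a cytochrome P450 panel assay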
Cytochrome P450 2C19 = Cytochrome P450 2C19 (Homo sapiens, UniProt P33261); assay: Cytochrome panel assay with activity outcomes. Panel member name: p450-cyp2c19 Compounds with AC50 equal or less than 10 uM are considered active; format: functional; conditions: read-out: AC50
[6] = NIH3T3 cell viability loss – ATP luminescence, mouse fibroblasts, counter-screen, dose response (AID 2010); format: functional, cell-based;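 also: cells exposed to compound for about 90 hours before reading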
[7] = Trypanosoma cruzi growth suppression in host cells – NIH3T3 host cells, beta-gal luminescence, confirmation (AID 2044); format: functional, cell-based;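 also: intracellular parasites grown in NIH/3T3 mouse fibroblasts as host cells; luminescent beta-galactosidase reporter signal from transgenic T. cruzi replicating inside host cells; inhibitors lower the luminescence signal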
[8] = viability of uninfected HEp-2 cells – cell-based, HTS, cytotoxicity control for RSV inhibitor project, dose response (AID 2410); format: functional; conditions: human respiratory syncytial virus
[9] = molecular target: T2, Zinc finger protein mex-5 (Caenorhabditis elegans, UniProt Q9XUB2); assay: potency of MEX-5 RNA-binding blockers – biochemical, C. elegans, fluorescence polarization, dose response (AID 1960)
T2 sequence (Q9XUB2 whole entry): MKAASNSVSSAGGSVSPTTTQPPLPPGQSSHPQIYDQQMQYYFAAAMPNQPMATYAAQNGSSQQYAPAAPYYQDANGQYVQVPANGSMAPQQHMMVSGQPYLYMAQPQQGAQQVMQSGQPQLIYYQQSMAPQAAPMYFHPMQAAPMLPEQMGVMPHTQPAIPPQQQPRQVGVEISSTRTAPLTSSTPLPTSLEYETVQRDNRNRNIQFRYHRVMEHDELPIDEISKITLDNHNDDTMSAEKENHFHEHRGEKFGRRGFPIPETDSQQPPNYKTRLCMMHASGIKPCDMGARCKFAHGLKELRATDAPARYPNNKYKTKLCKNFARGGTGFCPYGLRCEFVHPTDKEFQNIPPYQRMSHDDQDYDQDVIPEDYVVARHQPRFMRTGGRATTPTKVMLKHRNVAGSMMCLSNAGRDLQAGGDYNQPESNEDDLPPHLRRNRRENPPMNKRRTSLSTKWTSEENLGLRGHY

[10] = molecular target: T3, RNA-binding protein pos-1 (Caenorhabditis elegans, UniProt G5EF15); assay: disruptors of C. elegans POS-1 RNA interaction – biochemical, fluorescence polarization, dose response (AID 1964);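 also: purified POS-1 fused to maltose binding protein made in E. coli; potency of compounds blocking POS-1 binding to fluorescent RNA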
T3 sequence (G5EF15 whole entry): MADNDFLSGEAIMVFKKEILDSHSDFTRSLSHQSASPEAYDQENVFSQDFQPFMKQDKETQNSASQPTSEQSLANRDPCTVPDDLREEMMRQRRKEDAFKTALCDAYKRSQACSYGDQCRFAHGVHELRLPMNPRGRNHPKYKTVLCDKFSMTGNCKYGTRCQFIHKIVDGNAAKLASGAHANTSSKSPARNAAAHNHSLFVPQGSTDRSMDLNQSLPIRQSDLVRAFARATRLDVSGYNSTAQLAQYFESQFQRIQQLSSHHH

Cytochrome P450 1A2 = molecular target: T4, Cytochrome P450 1A2 (Homo sapiens, UniProt P05177);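 also: PubChem cytochrome P450 panel assay, CYP1A2 panel member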
T4 sequence (P05177 whole entry): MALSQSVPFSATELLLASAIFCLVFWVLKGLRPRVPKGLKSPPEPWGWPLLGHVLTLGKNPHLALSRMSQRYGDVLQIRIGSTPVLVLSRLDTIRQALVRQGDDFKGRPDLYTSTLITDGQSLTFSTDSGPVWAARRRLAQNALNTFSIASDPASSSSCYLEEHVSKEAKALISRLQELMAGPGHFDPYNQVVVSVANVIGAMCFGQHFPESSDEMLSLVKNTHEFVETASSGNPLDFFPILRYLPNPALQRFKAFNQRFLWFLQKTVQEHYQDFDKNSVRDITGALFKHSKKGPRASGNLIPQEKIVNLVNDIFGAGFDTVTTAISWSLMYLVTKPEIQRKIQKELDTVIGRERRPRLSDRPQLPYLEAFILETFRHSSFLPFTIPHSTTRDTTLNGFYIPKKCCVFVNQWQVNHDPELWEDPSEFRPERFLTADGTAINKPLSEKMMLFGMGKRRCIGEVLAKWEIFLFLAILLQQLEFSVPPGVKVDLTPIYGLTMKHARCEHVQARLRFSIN

H4 = assay: Luminescence Cell-Based Dose Response HTS to Identify Activators of 5'UTR Stem-Loop Driven Prion Protein mRNA Translation in H4 Neuroglioblastoma Cells. [Related pubchem assays: 1829 (Project Summary), 1814 (Primary HTS)]; format: functional; conditions: Homo sapiens

Chain of Cytochrome P450 2C9 (P11712 whole entry): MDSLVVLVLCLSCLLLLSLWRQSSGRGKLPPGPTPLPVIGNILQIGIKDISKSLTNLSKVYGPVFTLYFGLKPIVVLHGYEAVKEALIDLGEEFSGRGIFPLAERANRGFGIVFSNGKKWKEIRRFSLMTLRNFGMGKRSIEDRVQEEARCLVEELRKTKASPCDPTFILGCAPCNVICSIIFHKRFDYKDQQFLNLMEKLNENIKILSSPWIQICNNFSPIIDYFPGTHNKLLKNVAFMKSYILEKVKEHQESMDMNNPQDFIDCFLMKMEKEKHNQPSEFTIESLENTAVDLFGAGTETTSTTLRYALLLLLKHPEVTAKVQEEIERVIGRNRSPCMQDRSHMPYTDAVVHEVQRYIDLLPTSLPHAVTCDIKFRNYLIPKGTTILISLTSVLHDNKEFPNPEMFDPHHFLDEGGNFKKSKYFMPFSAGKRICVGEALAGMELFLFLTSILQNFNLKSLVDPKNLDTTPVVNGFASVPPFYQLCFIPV
Chain of Cytochrome P450 3A4 (P08684 whole entry): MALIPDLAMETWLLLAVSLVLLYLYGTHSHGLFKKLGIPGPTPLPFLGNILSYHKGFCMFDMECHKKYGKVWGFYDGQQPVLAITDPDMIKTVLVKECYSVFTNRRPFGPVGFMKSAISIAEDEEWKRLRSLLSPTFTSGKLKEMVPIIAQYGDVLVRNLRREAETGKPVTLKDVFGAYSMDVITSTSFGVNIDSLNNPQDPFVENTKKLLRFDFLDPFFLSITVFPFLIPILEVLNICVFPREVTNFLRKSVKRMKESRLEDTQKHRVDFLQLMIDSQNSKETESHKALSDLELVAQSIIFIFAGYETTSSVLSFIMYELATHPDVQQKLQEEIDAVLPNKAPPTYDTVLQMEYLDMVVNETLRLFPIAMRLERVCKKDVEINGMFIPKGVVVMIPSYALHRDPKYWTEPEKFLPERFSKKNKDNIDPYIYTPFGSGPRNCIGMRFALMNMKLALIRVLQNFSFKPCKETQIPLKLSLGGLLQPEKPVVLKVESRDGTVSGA
Chain of Cytochrome P450 2C19 (P33261 whole entry): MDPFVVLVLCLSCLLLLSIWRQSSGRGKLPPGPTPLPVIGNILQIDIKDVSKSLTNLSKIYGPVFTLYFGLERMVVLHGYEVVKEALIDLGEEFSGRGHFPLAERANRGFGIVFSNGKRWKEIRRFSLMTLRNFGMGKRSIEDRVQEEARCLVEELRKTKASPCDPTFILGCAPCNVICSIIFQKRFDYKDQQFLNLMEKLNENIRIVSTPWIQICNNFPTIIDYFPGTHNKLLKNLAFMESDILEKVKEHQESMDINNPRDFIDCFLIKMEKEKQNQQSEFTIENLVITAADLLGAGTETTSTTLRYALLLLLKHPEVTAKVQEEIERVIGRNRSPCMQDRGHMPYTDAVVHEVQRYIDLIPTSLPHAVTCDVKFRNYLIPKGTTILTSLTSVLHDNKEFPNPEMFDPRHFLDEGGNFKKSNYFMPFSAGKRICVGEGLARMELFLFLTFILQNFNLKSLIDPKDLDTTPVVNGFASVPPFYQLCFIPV
Chain of Cytochrome P450 2D6 (P10635 whole entry): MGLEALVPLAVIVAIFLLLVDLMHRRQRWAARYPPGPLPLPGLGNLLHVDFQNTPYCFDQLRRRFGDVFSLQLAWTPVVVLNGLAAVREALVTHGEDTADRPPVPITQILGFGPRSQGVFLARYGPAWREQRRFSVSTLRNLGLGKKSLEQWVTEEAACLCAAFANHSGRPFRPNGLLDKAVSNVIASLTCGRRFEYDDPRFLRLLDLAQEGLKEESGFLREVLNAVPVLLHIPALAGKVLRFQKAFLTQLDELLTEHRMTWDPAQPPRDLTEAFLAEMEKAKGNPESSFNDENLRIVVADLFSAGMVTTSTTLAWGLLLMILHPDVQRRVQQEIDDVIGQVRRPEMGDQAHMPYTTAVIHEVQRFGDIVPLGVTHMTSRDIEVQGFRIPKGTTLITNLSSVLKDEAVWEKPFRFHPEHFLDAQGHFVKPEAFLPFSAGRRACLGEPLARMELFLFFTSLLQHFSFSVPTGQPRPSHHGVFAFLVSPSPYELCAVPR

SMILES: Cc1cc(NCCCn2ccnc2)n2nc(C)c(-c3ccc(Cl)cc3)c2n1
- AC50 [1]: 6.35 µM (active)

SMILES: CCOC(=O)C1=C(C)N2C(=C(C#N)[C@@H]1c1ccc(C(=O)OC)cc1)SC[C@@]2(O)C(C)(C)C
- AC50 [1]: 0.33 µM (active)

SMILES: Cc1cccc(N2CCN(C(=O)CC(NC(=O)c3ccccc3)c3ccccc3)CC2C)c1 (configuration not stated)
- EC50 [2]: > 120 µM (not active)
- EC50 [3]: > 120 µM (not active)
- EC50 [4]: > 120 µM (not active)

SMILES: Cc1ccc(C(=O)NC2CCCCCC2)cc1N1CCCC1=O
- AC50 (Cytochrome P450 3A4): 25.1 µM (inconclusive)
- AC50 (Cytochrome P450 2C9): 25.1 µM (inconclusive)

SMILES: S=C(NCc1ccccc1)NCc1ccc(CNC(=S)NCc2ccccc2)cc1
- EC50 [2]: > 120 µM (not active)
- EC50 [3]: > 120 µM (not active)
- EC50 [4]: > 120 µM (not active)

SMILES: Nc1ccc(Sc2ccc(N)cc2)cc1 [4,4'-THIODIANILINE]
- IC50 [5]: 13.2 µM (active)

SMILES: Cc1c(C(=O)N/N=C/c2ccccc2)sc(=S)n1C
- AC50 (Cytochrome P450 3A4): 25.1 µM (inconclusive)
- AC50 (Cytochrome P450 2D6): 10 nM (inconclusive)
- AC50 (Cytochrome P450 2C19): 25.1 µM (inconclusive)

SMILES: O=C(Nc1ccc(-c2csc(Nc3cccc(C(F)(F)F)c3)n2)cc1)c1ccccc1
- EC50 [6]: 7.93 µM (active)
- EC50 [7]: 859 nM (active)
- CC50 [8]: 17.2 µM (active)
- AC50 [1]: 1.54 µM (active)

SMILES: O=C(/C=C/c1ccc(O)c(O)c1)OC(Cc1ccc(O)c(O)c1)C(=O)O (configuration not stated)
- EC50 [9]: 8.75 µM (active)
- EC50 [10]: 13.6 µM (active)
- IC50 [5]: 35 µM (active)

SMILES: COc1cc(/C=N/NC(=O)c2ccc(CN(C)S(=O)(=O)c3ccc(C)cc3)cc2)ccc1O
- AC50 [1]: 2.5 µM (active)

SMILES: COc1ccc(/C=N/NC(=S)NC2CCS(=O)(=O)C2)cc1OC (configuration not stated)
- AC50 (Cytochrome P450 3A4): 22.4 µM (inconclusive)

SMILES: Nc1ccc(C(=O)n2c3ccccc3c3ccccc32)cc1
- EC50 [2]: 9.05 µM (active)
- EC50 [4]: 9.6 µM (active)

SMILES: CCS(=O)(=O)c1nc(S(=O)(=O)c2ccc(C)cc2)c(N2CC(C)CC(C)C2)s1 (configuration not stated)
- EC50 [2]: > 120 µM (not active)
- EC50 [3]: > 120 µM (not active)
- EC50 [4]: > 120 µM (not active)

SMILES: CCOc1cc(/C=N/Nc2nc(O)nnc2C)ccc1O
- IC50 [5]: 40.2 µM (active)

SMILES: Cc1ccc(-c2csc(NC(=S)NC(=O)/C=C/c3ccco3)n2)cc1
- AC50 (Cytochrome P450 3A4): 15.8 µM (inconclusive)
- AC50 (Cytochrome P450 2C9): 0.282 µM (inconclusive)

SMILES: COc1ccc(/C=C\C(=O)Nc2ccccc2C(=O)O)cc1OC
- AC50 (Cytochrome P450 1A2): 39.8 µM (inconclusive)
- AC50 (Cytochrome P450 3A4): 39.8 µM (inconclusive)
- AC50 (Cytochrome P450 2C9): 15.8 µM (inconclusive)

SMILES: CC(C)C(=O)Nc1cc2c(cc1C(=O)c1ccccc1)OCCO2
- AC50 (Cytochrome P450 3A4): 22.4 µM (inconclusive)

SMILES: CCOC(=O)c1c(NC=C2C(=O)CCCC2=O)sc(C)c1C
- IC50 [5]: 102 µM (active)

SMILES: CCOC(=O)c1ccc(-c2ccc(/C=N/NC(=O)c3cncc(Br)c3)o2)cc1
- EC50 (H4): 117 µM (active)

SMILES: O=C1C(Cc2ccccc2)NC(=S)N1c1ccccc1 (configuration not stated)
- AC50 (Cytochrome P450 1A2): 2.24 µM (inconclusive)
- AC50 (Cytochrome P450 3A4): 2.24 µM (inconclusive)

SMILES: CCOC(=O)N/N=C/c1ccc(N2CCOCC2)s1
- IC50 [5]: 52.6 µM (active)

SMILES: CCC(C)[C@H](NC(=O)N1CCCC1)C(=O)O (some centres not stated)
- EC50 [2]: > 120 µM (not active)
- EC50 [3]: > 120 µM (not active)
- EC50 [4]: > 120 µM (not active)

SMILES: N#Cc1ccc(CN2CCC3(CC2)CCN(C(=O)c2ccncc2)CC3)cc1
- AC50 (Cytochrome P450 3A4): 12.6 µM (inconclusive)

SMILES: C=CCC(C)(NCc1ccccc1)c1ccco1 (configuration not stated)
- AC50 (Cytochrome P450 3A4): 15.8 µM (inconclusive)
- AC50 (Cytochrome P450 2C9): 0.0355 µM (inconclusive)

SMILES: CCc1c(C)nc(N)n2c(SCC(=O)Nc3ccccc3OC)nnc12
- EC50 [2]: > 120 µM (not active)
- EC50 [3]: > 120 µM (not active)
- EC50 [4]: > 120 µM (not active)

SMILES: COC(=O)CCNCCSc1nnc(-c2ccco2)n1Cc1ccccc1
- IC50 [5]: 98.5 µM (active)

SMILES: CCCOc1ccc(NC(=O)CC2C(=O)N(c3ccc(OCC)cc3)C(=S)N2C2CC2)cc1 (configuration not stated)
- EC50 [2]: > 120 µM (not active)
- EC50 [3]: 12.1 µM (active)
- EC50 [4]: > 120 µM (not active)

SMILES: COc1cc(/C(C)=N\NC(=O)CSc2nc3ccccc3n2C)ccc1O
- IC50 [5]: 41.6 µM (active)

SMILES: O=c1c2[nH]cnc2n(-c2ccc(F)cc2)c(=O)n1Cc1ccccc1
- EC50 [2]: > 120 µM (not active)
- EC50 [3]: > 120 µM (not active)
- EC50 [4]: 39.3 µM (active)

SMILES: O=C(NCCCN1CCCC1=O)Nc1ccc(F)c(Cl)c1
- AC50 (Cytochrome P450 1A2): 22.4 µM (inconclusive)
- AC50 (Cytochrome P450 3A4): 28.2 µM (inconclusive)
- AC50 (Cytochrome P450 2C19): 39.8 µM (inconclusive)

SMILES: COc1ccc(CN2CCN(Cc3cccn3-c3ncccn3)CC2CCO)c(C)c1C (configuration not stated)
- EC50 [2]: > 120 µM (not active)
- EC50 [3]: 12.1 µM (active)
- EC50 [4]: > 120 µM (not active)

SMILES: Nc1nc(SCc2ccc([N+](=O)[O-])cc2)c2ncn([C@@H]3O[C@@H](CO)[C@@H](O)[C@H]3O)c2n1
- AC50 (Cytochrome P450 3A4): 15.8 µM (inconclusive)

SMILES: COc1ccc(-c2nc3cnc(N4CCNCC4)nc3n(CCC#N)c2=O)cc1
- AC50 (Cytochrome P450 1A2): 15.8 µM (inconclusive)
- AC50 (Cytochrome P450 3A4): 12.6 µM (inconclusive)

SMILES: CC(C)CCn1cnc2c(c1=O)c1nc3ccccc3nc1n2Cc1ccc2c(c1)OCO2
- EC50 [2]: > 120 µM (not active)
- EC50 [3]: > 120 µM (not active)
- EC50 [4]: > 120 µM (not active)

SMILES: CCOc1ccc(N(C(C)C(=O)NC(C)CC)S(C)(=O)=O)cc1 (configuration not stated)
- AC50 (Cytochrome P450 3A4): 14.1 µM (inconclusive)
- AC50 (Cytochrome P450 2C19): 7.94 µM (inconclusive)

SMILES: O=C(COCC(=O)Nc1cccc(C(F)(F)F)c1)Nc1cccc(C(F)(F)F)c1
- AC50 [1]: 5.16 µM (active)
